Measured values reported in patent publication US20260356810A1, “NOVEL PIPERAZINE-BASED SULFONAMIDES AND THEIR USE AS NEUROPROTECTIVE AND/OR NEURORESTORATIVE AGENTS” (GENECODE, priority 2022, published 2026).
pEC50: −log10 of the molar value. Where two headings read alike, the source gives them in different places.

Biological target: T1, GFRα1-RET (Homo sapiens, UniProt P56159)
T1 construct: expressed in transfected cells; host or cells: MG87 murine fibroblast
Test: Luciferase assay: activation of Elk1 signaling in reporter-gene cells expressing GFRα1-RET (MG87 murine fibroblast stably transfected with PathDetect Elk-1, GFRα1, and RET)
Assay type: cell-based
Procedure: The purpose of this experiment was to evaluate the GFRα1-RET activity of the compounds 001-060 according to the invention.
The compounds were tested for their activating activity of Elk1 signaling using the previously developed reporter-gene-based system in cells expressing GFRα1-RET (MG87 murine fibroblast stably transfected with PathDetect Elk-1, GFRα1, and RET) disclosed in Sidorova, Y. A. et al.: “Persephin signaling through GFRα1: The potential for the treatment of Parkinson's disease.” Molecular and Cellular Neuroscience, July 2010, Vol. 44, pp. 223-232. DOI: 10.1016/j.mcn.2010.03.009. For EC50 determination, a dose-response test was performed using 6 concentrations of each tested compound. Dose-response curves were fitted using the sigmoidal dose-response (variable slope) analysis in GraphPad Prism program (Graph Pad Inc) and EC50 of agonist/activator activity was calculated. Dose-response experiments were all performed in duplicate, two times independently.
The compounds were tested for their activating activity of Elk1 signaling using the same materials and methods than for the compounds according to the invention (Example 2 herein, section “Materials and methods”).

[1] = Table 4, MG87 murine fibroblasts with PathDetect Elk-1, GFRα1, RET, 6 concentrations, duplicate, two times independently, agonist/activator activity, read-out: Luciferase Assay EC50
[2] = Table 6, comparison with comparative compounds, values for 001, 009, 010 reported from Table 4, MG87 GFRα1-RET cells, read-out: Luciferase Assay EC50
[3] = text statement on Table 6 results, GFRα1-RET luciferase assay, read-out: EC50

T1 sequence (P56159 25-429 limits assumed): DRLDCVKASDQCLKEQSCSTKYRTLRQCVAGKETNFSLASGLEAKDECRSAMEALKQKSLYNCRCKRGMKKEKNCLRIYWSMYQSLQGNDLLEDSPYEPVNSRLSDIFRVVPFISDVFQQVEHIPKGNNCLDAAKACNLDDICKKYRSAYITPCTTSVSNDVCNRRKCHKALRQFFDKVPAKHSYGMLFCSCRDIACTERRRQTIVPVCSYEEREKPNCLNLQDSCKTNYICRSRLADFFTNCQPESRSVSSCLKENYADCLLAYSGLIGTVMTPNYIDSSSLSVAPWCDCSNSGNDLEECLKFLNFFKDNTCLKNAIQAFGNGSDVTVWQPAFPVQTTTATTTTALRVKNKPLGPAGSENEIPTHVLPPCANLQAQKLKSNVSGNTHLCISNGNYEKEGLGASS
T1 sequence (P07949 29-1114 partner): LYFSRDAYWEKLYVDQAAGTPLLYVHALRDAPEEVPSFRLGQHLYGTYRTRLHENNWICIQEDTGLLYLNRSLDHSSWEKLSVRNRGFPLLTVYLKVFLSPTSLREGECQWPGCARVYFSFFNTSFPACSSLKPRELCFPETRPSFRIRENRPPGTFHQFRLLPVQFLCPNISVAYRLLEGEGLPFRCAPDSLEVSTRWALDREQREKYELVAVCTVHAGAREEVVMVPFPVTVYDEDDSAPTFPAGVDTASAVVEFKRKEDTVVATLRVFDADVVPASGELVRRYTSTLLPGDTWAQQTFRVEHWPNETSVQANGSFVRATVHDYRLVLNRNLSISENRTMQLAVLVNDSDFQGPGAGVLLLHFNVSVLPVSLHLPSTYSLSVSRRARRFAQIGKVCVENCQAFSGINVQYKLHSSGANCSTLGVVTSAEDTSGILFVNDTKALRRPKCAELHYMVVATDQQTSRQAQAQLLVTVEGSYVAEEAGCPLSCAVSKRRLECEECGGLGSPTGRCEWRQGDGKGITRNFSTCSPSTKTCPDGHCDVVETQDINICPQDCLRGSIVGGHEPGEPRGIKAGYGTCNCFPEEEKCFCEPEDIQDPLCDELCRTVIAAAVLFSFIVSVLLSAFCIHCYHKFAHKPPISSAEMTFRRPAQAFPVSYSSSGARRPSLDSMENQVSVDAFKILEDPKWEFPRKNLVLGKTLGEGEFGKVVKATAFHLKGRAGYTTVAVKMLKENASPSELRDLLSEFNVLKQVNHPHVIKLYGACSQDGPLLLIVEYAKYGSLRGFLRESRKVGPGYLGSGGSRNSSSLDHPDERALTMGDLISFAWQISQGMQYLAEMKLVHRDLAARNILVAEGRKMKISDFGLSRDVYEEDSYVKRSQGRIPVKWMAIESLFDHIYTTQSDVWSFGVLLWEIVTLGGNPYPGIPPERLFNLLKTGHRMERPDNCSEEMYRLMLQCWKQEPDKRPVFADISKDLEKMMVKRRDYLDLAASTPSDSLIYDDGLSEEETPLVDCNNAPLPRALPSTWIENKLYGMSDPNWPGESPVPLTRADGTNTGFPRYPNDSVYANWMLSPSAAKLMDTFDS

pEC50 [1]	pEC50 [2]	pEC50 [3]	SMILES
4.30 to 5.00			CCN(CC)S(=O)(=O)c1cccc(N2CCN(C(=O)c3ccc(F)cc3C(F)(F)F)CC2)c1 [Compound 041, N,N-diethyl-3-[4-[4-fluoro-2-(trifluoromethyl)benzoyl]piperazin-1-yl]benzenesulfonamide]
5.30 to 6.00			CCCN(C)S(=O)(=O)c1ccc(F)c(N2CCN(C(=O)c3ccc(F)cc3C(F)(F)F)CC2)c1 [Compound 042, 4-fluoro-3-[4-[4-fluoro-2-(trifluoromethyl)benzoyl]piperazin-1-yl]-N-methyl-N-propyl-benzenesulfonamide]
5.30 to 6.00			CCCN(C)S(=O)(=O)c1cc2c(c(N3CCN(C(=O)c4ccc(F)cc4C(F)(F)F)CC3)c1)OCC2 [Compound 043, 7-[4-[4-fluoro-2-(trifluoromethyl)benzoyl]piperazin-1-yl]-N-methyl-N-propyl-2,3-dihydrobenzofuran-5-sulfonamide]
4.30 to 5.00			CCN(CC)S(=O)(=O)c1cnc(Cl)c(N2CCN(C(=O)c3ccc(F)cc3C(F)(F)F)CC2)c1 [Compound 044, 6-chloro-N,N-diethyl-5-[4-[4-fluoro-2-(trifluoromethyl)benzoyl]piperazin-1-yl]pyridine-3-sulfonamide]
4.30 to 5.00			CCN(CC)S(=O)(=O)c1cnc(OC)c(N2CCN(C(=O)c3ccc(F)cc3C(F)(F)F)CC2)c1 [Compound 045, N,N-diethyl-5-[4-[4-fluoro-2-(trifluoromethyl)benzoyl]piperazin-1-yl]-6-methoxy-pyridine-3-sulfonamide]
5.00 to 5.30			CCCN(C)S(=O)(=O)c1ccc(OCCOC)c(N2CCN(C(=O)c3ccc(F)cc3C(F)(F)F)CC2)c1 [Compound 046, 3-[4-[4-fluoro-2-(trifluoromethyl)benzoyl]piperazin-1-yl]-4-(2-methoxyethoxy)-N-methyl-N-propyl-benzenesulfonamide]
5.30 to 6.00			CCCN(C)S(=O)(=O)c1ccc(OCc2ccccc2)c(N2CCN(C(=O)c3ccc(F)cc3C(F)(F)F)CC2)c1 [Compound 047, 4-benzyloxy-3-[4-[4-fluoro-2-(trifluoromethyl)benzoyl]piperazin-1-yl]-N-methyl-N-propyl-benzenesulfonamide]
5.00 to 5.30			CCCN(C)S(=O)(=O)c1ccc(O)c(N2CCN(C(=O)c3ccc(F)cc3C(F)(F)F)CC2)c1 [Compound 048, 3-[4-[4-fluoro-2-(trifluoromethyl)benzoyl]piperazin-1-yl]-4-hydroxy-N-methyl-N-propyl-benzenesulfonamide]
4.30 to 5.00			CCCN(C)S(=O)(=O)c1ccc(OCCO)c(N2CCN(C(=O)c3ccc(F)cc3C(F)(F)F)CC2)c1 [Compound 049, 3-[4-[4-fluoro-2-(trifluoromethyl)benzoyl]piperazin-1-yl]-4-(2-hydroxyethoxy)-N-methyl-N-propyl-benzenesulfonamide]
> 6.00			COc1ccc(S(=O)(=O)N2CCC(c3ccc(F)cc3)CC2)cc1N1CCN(C(=O)c2ccc(F)cc2Cl)CC1 [Compound 050, (2-chloro-4-fluoro-phenyl)-[4-[5-[[4-(4-fluorophenyl)-1-piperidyl]sulfonyl]-2-methoxy-phenyl]piperazin-1-yl]methanone]
5.30 to 6.00			COc1ccc(S(=O)(=O)N2CCN(CCc3ccc(Cl)cc3)CC2)cc1N1CCN(C(=O)c2ccc(F)cc2Cl)CC1 [Compound 051, (2-chloro-4-fluoro-phenyl)-[4-[5-[4-[2-(4-chlorophenyl)ethyl]piperazin-1-yl]sulfonyl-2-methoxy-phenyl]piperazin-1-yl]methanone]
5.30 to 6.00			COc1ccc(S(=O)(=O)N2CCN(CCc3ccc(F)cc3)CC2)cc1N1CCN(C(=O)c2ccc(F)cc2Cl)CC1 [Compound 052, (2-chloro-4-fluoro-phenyl)-[4-[5-[4-[2-(4-fluorophenyl)ethyl]piperazin-1-yl]sulfonyl-2-methoxy-phenyl]piperazin-1-yl]methanone]
> 6.00			Cc1cc(S(=O)(=O)N2CCC(c3ccccc3)CC2)cc(N2CCN(C(=O)c3ccc(F)cc3Cl)CC2)c1O [Compound 055, (2-chloro-4-fluoro-phenyl)-[4-[2-hydroxy-3-methyl-5-[(4-phenyl-1-piperidyl)sulfonyl]phenyl]piperazin-1-yl]methanone]
> 6.00			Cc1cc(S(=O)(=O)N2CCC(c3ccc(F)cc3)CC2)cc(N2CCN(C(=O)c3ccc(F)cc3Cl)CC2)c1O [Compound 056, (2-chloro-4-fluoro-phenyl)-[4-[5-[[4-(4-fluorophenyl)-1-piperidyl]sulfonyl]-2-hydroxy-3-methyl-phenyl]piperazin-1-yl]methanone]
5.30 to 6.00			O=C(c1ccc(F)cc1Cl)N1CCN(c2cc(S(=O)(=O)N3CCC(F)CC3)cc(Cl)c2O)CC1 [Compound 057, (2-chloro-4-fluoro-phenyl)-[4-[3-chloro-5-[(4-fluoro-1-piperidyl)sulfonyl]-2-hydroxy-phenyl]piperazin-1-yl]methanone]
> 6.00			CC(C)(C)NS(=O)(=O)c1cc(Cl)c(O)c(N2CCN(C(=O)c3ccc(F)cc3Cl)CC2)c1 [Compound 058, N-tert-butyl-3-chloro-5-[4-(2-chloro-4-fluoro-benzoyl)piperazin-1-yl]-4-hydroxy-benzenesulfonamide]
> 6.00			CN(CC1CC1)S(=O)(=O)c1cc(Cl)c(O)c(N2CCN(C(=O)c3ccc(F)cc3Cl)CC2)c1 [Compound 059, 3-chloro-5-[4-(2-chloro-4-fluoro-benzoyl)piperazin-1-yl]-N-(cyclopropylmethyl)-4-hydroxy-N-methyl-benzenesulfonamide]
5.30 to 6.00			COc1ccc(S(=O)(=O)N2CCCC2(C)C)cc1N1CCN(C(=O)c2ccc(F)cc2Cl)CC1 [Compound 060, (2-chloro-4-fluoro-phenyl)-[4-[5-(2,2-dimethylpyrrolidin-1-yl)sulfonyl-2-methoxy-phenyl]piperazin-1-yl]methanone]
	< 4.30	< 4.30	COc1ccc(S(=O)(=O)N2CCC(Cc3ccccc3)CC2)cc1N1CCN(C(=O)c2cc(F)ccc2C(F)(F)F)CC1 [Compound C01, (4-(5-((4-benzylpiperidin-1-yl)sulfonyl)-2-methoxyphenyl)piperazin-1-yl)(5-fluoro-2-(trifluoromethyl)phenyl)methanone, reference compound]
	< 4.30	< 4.30	CCN(CC)S(=O)(=O)c1ccc(OC)c(N2CCN(C(=O)c3cc(F)ccc3C(F)(F)F)CC2)c1 [Compound C02, N,N-diethyl-3-(4-(5-fluoro-2-(trifluoromethyl)benzoyl)piperazin-1-yl)-4-methoxybenzenesulfonamide, reference compound]
